Each molecule was assayed against T1, BLNG_01257 (SBP of FHMO cluster) (Bifidobacterium longum, UniProt A0A0M3T5K2) (assay: glycan array (CFG Mammalian Glycan Array v5.[…]), anti-GST Alexa […]). Settings: glycan immobilised via spacer; protein 200 ug/ml; pH 7.4, 150 mM NaCl, 2 mM CaCl2, 2 mM MgCl2.
T1 construct: tag kept for detection; homolog of Blon_0343 and Blon_2202
T1 sequence (A0A0M3T5K2 23-460 limits assumed): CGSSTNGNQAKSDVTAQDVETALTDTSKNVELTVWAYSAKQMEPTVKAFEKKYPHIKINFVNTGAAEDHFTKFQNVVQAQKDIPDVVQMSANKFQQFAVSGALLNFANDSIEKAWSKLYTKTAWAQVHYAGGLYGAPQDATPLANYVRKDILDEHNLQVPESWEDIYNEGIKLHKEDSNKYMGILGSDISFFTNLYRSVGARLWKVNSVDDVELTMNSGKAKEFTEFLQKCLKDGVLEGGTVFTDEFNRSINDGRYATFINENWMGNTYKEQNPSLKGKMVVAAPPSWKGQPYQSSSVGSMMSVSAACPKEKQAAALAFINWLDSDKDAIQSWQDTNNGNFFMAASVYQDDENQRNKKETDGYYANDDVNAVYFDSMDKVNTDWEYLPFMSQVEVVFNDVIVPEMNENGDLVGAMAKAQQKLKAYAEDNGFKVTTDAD
Format: binding
With `C[C@@H]1O[C@@H](O[C@H]2C(O)O[C@H](CO)[C@H](O)[C@@H]2O)[C@@H](O)[C@H](O)[C@@H]1O` (stereo partly shown) [Fuca1-2Galβ-Sp8] the “Average RFU^b” value was 2161 RFU.
For Fuca1-2Galβ1-4Glcβ-Sp0, the “Average RFU^b” value was 360 RFU.

The molecules below were run against T2, BLNG_00936 (SBP) (Bifidobacterium longum, UniProt Q8G848) in the same assay as above. Settings: glycan immobilised via spacer; protein 200 ug/ml; pH 7.4, 150 mM NaCl, 2 mM CaCl2, 2 mM MgCl2.
T2 construct: gene fruE; tag kept for detection
T2 sequence (Q8G848 23-327 limits assumed): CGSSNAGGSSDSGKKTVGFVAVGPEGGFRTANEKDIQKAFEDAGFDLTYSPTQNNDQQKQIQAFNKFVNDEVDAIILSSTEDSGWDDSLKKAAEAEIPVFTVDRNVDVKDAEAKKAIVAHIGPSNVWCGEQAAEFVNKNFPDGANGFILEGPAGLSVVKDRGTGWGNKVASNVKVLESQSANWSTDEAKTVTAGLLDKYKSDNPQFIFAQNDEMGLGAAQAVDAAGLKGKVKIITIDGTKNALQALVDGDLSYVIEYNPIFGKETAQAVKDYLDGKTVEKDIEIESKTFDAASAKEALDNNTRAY
Format: binding
With `CC(=O)N[C@H]1[C@H](OCCCN)O[C@H](CO)[C@@H](O[C@@H]2O[C@H](CO)[C@H](O)[C@H](O[C@@H]3O[C@H](CO)[C@H](O)[C@H](O)[C@H]3O)[C@H]2O)[C@@H]1O` [Galβ1-3Galβ1-4GlcNAcβ-Sp8] the “Average RFU^b” value was 126 RFU.

What follows are molecules tested against T3, BLNG_00160 (SBP of LNB/GNB cluster) (Bifidobacterium longum, UniProt Q8G3W5) in the same assay as above. Settings: glycan immobilised via spacer; protein 200 ug/ml; pH 7.4, 150 mM NaCl, 2 mM CaCl2, 2 mM MgCl2.
T3 construct: gene BL1638; tag kept for detection
T3 sequence (Q8G3W5 24-438): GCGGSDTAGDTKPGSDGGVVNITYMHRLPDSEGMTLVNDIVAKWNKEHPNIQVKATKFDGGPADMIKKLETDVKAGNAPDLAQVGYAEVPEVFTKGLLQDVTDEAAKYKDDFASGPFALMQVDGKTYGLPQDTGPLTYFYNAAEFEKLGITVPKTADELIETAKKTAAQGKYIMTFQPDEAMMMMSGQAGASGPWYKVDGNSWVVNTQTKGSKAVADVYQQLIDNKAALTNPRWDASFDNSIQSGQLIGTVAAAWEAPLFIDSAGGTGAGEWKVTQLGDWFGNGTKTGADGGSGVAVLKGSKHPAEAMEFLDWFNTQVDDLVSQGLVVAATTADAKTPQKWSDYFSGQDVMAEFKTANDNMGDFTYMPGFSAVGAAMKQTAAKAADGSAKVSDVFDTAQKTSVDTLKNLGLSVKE
Format: binding
In the case of `CC(=O)N[C@H]1[C@H](OCCCN)O[C@H](COS(=O)(=O)O)[C@@H](O)[C@@H]1O[C@@H]1O[C@H](CO)[C@H](O)[C@H](O)[C@H]1O` [Galβ1-3(6S)GlcNAcβ-Sp8], the “Average RFU^b” value is reported as 2646 RFU.
In the case of `CC(=O)N[C@H]1[C@H](O[C@@H]2[C@H](O)[C@@H](O)[C@H](O[C@H]3[C@H](O)[C@@H](O)[C@H](OCCCN)O[C@@H]3CO)O[C@@H]2CO)O[C@H](CO)[C@H](O)[C@@H]1O[C@@H]1O[C@H](CO)[C@H](O)[C@H](O)[C@H]1O` [Galβ1-3GalNAcβ1-4Galβ1-4Glcβ-Sp8], the “Average RFU^b” value is reported as 3430 RFU.
`CC(=O)N[C@H]1[C@H](OCCCN)O[C@H](CO)[C@@H](O[C@@H]2O[C@H](CO)[C@H](O)[C@H](O[C@@H]3O[C@H](CO)[C@H](O)[C@H](O)[C@H]3O)[C@H]2O)[C@@H]1O` [Galβ1-3Galβ1-4GlcNAcβ-Sp8] was tested, and the “Average RFU^b” value was 4654 RFU.
In the case of `CC(=O)N[C@H]1[C@H](OCCN)O[C@H](CO)[C@@H](O[C@@H]2O[C@H](CO)[C@H](O)[C@H](O[C@@H]3O[C@H](CO)[C@@H](O)[C@H](O[C@@H]4O[C@H](CO)[C@H](O)[C@H](O)[C@H]4O)[C@H]3NC(C)=O)[C@H]2O)[C@@H]1O` [Galβ1-3GlcNAcβ1-3Galβ1-4GlcNAcβ-Sp0], the “Average RFU^b” value is reported as 2029 RFU.
For `CC(=O)N[C@H]1[C@H](OCCN)O[C@H](CO)[C@@H](O)[C@@H]1O[C@@H]1O[C@H](CO)[C@H](O)[C@H](O)[C@H]1O` [Galβ1-3GlcNAcβ-Sp0], the “Average RFU^b” value was 969 RFU.
In the case of Galβ1-3GalNAcβ1-3Gal-Sp21, the “Average RFU^b” value is reported as 2528 RFU.
Galβ1-3GlcNAcβ1-3Galβ1-4Glcβ-Sp10 was tested, and the “Average RFU^b” value was 1784 RFU.

Reference: paper PMC5069460, “A novel gene cluster allows preferential utilization of fucosylated milk oligosaccharides in Bifidobacterium longum subsp. longum SC596” (Scientific Reports, 2016)
